Reference: paper PMC9828517 (Angewandte Chemie (International Ed. in English), 2022)

Molecular target: T1, recombinant SIRT5 (His-tagged, Millipore) (Homo sapiens, UniProt Q9NXA8)
T1 sequence (Q9NXA8 37-310): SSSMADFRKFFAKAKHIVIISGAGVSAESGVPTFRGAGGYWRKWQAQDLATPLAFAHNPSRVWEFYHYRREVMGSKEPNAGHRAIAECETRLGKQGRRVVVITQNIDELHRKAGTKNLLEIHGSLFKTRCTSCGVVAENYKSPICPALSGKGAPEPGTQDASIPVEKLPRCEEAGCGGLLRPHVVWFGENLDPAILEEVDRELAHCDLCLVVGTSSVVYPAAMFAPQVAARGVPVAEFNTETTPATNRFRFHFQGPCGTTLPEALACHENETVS
Assay: Mass spectrometry determination of covalent labeling
Assay type: binding
Settings: Tris buffer pH 8, 24 h room temperature (7, 8: 37 °C, 48 h)

Structure (SMILES) | covalent conjugate formation with SIRT5 (MALDI-TOF MS)
O=C(NC1CCC1)[C@H](Cc1c[nH]c2ccccc12)NC(=O)[C@H](CCCCNC(=S)Nc1ccc(OS(=O)(=O)F)cc1)NS(=O)(=O)c1cccc(F)c1 [compound 8] | not significantly enhanced compared to the amide analogs
O=C(NCCCC[C@H](NS(=O)(=O)c1cccc(F)c1)C(=O)N[C@@H](Cc1c[nH]c2ccccc12)C(=O)NC1CCC1)c1cccc(S(=O)(=O)F)c1 [compound 2] | reacted more readily with SIRT5
O=C(NC1CCC1)[C@H](Cc1c[nH]c2ccccc12)NC(=O)[C@H](CCCCNC(=S)Nc1cccc(OS(=O)(=O)F)c1)NS(=O)(=O)c1cccc(F)c1 [compound 7] | not significantly enhanced compared to the amide analogs
